The record followed here is paper PMC9027910, “Synthesis and Antimycobacterial Evaluation of N-(4-(Benzyloxy)benzyl)-4-aminoquinolines” (Molecules, 2022).

One data set relates to M. tuberculosis H37Rv. The experiment in a line: Minimum inhibitory concentration (resazurin microplate). As to conditions: Mycobacterium tuberculosis; M. tuberculosis H37Rv; 7 days + 48 h resazurin; highest value of three assays. In kind it is cell-based, Mycobacterium tuberculosis.
Data set [1] is classed as physicochemical. To be noted: buffer, 24 h, 10 µM. As to the method:
The experiment was carried out by the Center for Applied Mass Spectrometry (CEMSA), São Paulo, Brazil. In brief, the test compounds (10 µM) were incubated at 37 °C for 24 h in the presence of pH-controlled buffer solution at pH 1.2 (simulating the pH of the stomach—0.1 M HCl), pH 7.4 (simulating plasma pH—phosphate buffer) and pH 9.1 (simulating intestinal pH—0.1 M NH4HCO3). Afterward, compounds were quantified by HPLC–MS/MS. Alprenolol drug was used as an analytical control (data not shown). The results were presented as the percentage, comparing the signal at time zero of the assay (100%) with the signal produced by concentrations after the incubation period.

The next data set has as its system HepG2 cells. The experiment in a line: Cellular viability of HepG2 cells (MTT and neutral red uptake). In kind it is cell-based. As to conditions: for HepG2 cell viability in words: 72 h at concentrations similar to MIC, MTT and neutral red; for CC50: neutral red method, 72 h. As to the method:
(§1) Cellular viability was determined using two distinct methods—3-(4,5-dimethylthiazol-2-yl)-2,5-diphenyl-2H-tetrazolium bromide (MTT) and neutral red uptake (NRU). The cell lines employed in the evaluation were Vero and HepG2 cells. Both cell lines were grown with Dulbecco’s Modified Eagle Medium (DMEM-Gibco, Grand Island, NY, USA) and supplemented with 10% fetal bovine serum by Invitrogen, 1% antibiotics (penicillin and streptomycin) by Gibco, and 0.1% fungizone by Gibco. For the MTT and NRU assays, Vero (2 × 10^3 cells/well) and HepG2 (4 × 10^3 cells/well) cells were seeded in 96-well culture plates and incubated overnight. The N-(4-(benzyloxy)benzyl)-4-aminoquinolines were diluted at concentrations of 3 µM using DMSO 1% and were incubated with the cell lines for 72 h at 37 °C. In the MTT investigation, after incubation for 72 h at 37 °C under 5% CO2, the cells were incubated with MTT solution (5 mg/mL, Sigma-Aldrich, St. Louis, MO, USA) for 4 h. The formazan crystals were solubilized in 100 µL of DMSO. An EZ Read 400 microplate reader (Biochrom, Cambridge, UK) was used to measure the absorbance at 570 nm. The mean absorbance of negative control wells was established as the maximum viability and the values of treated cells were calculated as the percentage of vehicle control (1% DMSO). The precipitated purple formazan crystals were directly equivalent to the number of live cells with active mitochondrial metabolism. In the NRU investigation, after 72 h of cell incubation, PBS was used to wash the cells and 200 µL of neutral red dye solution (25 µg/mL, Sigma-Aldrich, St. Louis, MO, USA) prepared in serum-free medium was added to the plate and incubated for 3 h at 37 °C under 5% CO2. Cells were washed with PBS followed by the addition of 100 µL of desorb solution (ethanol/acetic acid/water, 50:1:49) for 30 min with smooth homogenization to extract neutral red dye from the viable cells. An EZ Read 400 microplate reader was operated to measure the absorbance at 562 nm, and the cell viability was attributed as a percentage, considering the vehicle control cell (1% DMSO) as maximum cell viability.

Assay in data set [2]: as above
In kind it is cell-based. To be noted: human, HepG2 cells; MTT method, 72 h. Here is the method: as §1

Another data set relates to Vero cells. The experiment in a line: Cellular viability of Vero cells (MTT and neutral red uptake). Type of data set: cell-based. As to conditions: for Vero cell viability in words: 72 h at concentrations similar to MIC, MTT and neutral red; for CC50: neutral red method, 72 h. Here is the method:
as §1

Assay in data set [3]: as above
In kind it is cell-based. To be noted: African green monkey, Vero cells; MTT method, 72 h. As to the method: as §1
In general terms: Tetrazolium dyes change colour on reduction, which living cells bring about.

Another data set in a line: in vitro. In kind it is in vitro ADME. As to conditions: for Papp at 5 h, 10 µM: PAMPA, pH 7.4. Here is the method: The experiment was carried out by the Center for Applied Mass Spectrometry (CEMSA), São Paulo, Brazil. In brief, the Parallel Artificial Membrane Permeability Assay (PAMPA) assay consists of quantifying the test compound (via HPLC–MS/MS) after an incubation period, in two solutions separated by an artificial lipid membrane. The result of this test is expressed in units of diffusion rate (permeation). The procedure comprised the following steps: (1) preparing the membrane, which contains lipids, with specific activating solutions, creating a hydrophobic surface that simulates the intestinal epithelial cell; (2) adding the test compound at a concentration of 10 µM to the donor aqueous phase (buffered pH 7.4); (3) after 5 h at room temperature, an aliquot of the solution receptor (buffered at pH 7.4) is removed, in which the compound is transported by passive diffusion, for quantification by HPLC–MS/MS.
For orientation: The PAMPA barrier holds no transporters, so it reflects passive diffusion.

A short description of data set [4]: Metabolic stability in rat liver microsomes. Type of data set: in vitro ADME. As to conditions: for Metabolism rate class: rat microsomes, classes by Clint; for CLint scaled / half-life: rat, microsomes. As to the method:
The experiment was carried out by the Center for Applied Mass Spectrometry (CEMSA), São Paulo, Brazil. In brief, the metabolic stability assay was performed in the presence of rat liver microsomes. Compounds were incubated at 37 °C in a buffered solution containing 1 mg/mL of microsomal protein and nicotinamide adenine dinucleotide […]. The reaction was stopped at different times using acetonitrile. The compound concentration was determined by HPLC–MS/MS at each incubation time (0, 5, 15, and 30 min) and the percentage remaining versus time curve was determined. Verapamil was used as an analytical control (data not shown).

Consider `Cc1cc(NCc2ccc(OCc3ccc(Cl)cc3)cc2)c2cc(Br)ccc2n1` [Compound 9n, N-(4-((4-chlorobenzyl)oxy)benzyl)-6-bromo-2-methylquinolin-4-amine], for which the melting point (in general, the temperature, or range, at which the solid turns liquid) lay in the range of 184 to 186 °C. For the same compound, the minimal inhibitory concentration (MIC) (commonly the lowest concentration found to suppress growth) with M. tuberculosis H37Rv came to 2.7 µM. For the same compound, in data set [1], the “Chemical Stability pH 1.2, remaining compound” value is 14.9%; the “Chemical Stability pH 7.4, remaining compound” value came out at 5.0%; the “Chemical Stability pH 9.1, remaining compound” value is recorded as 13.8%. Besides, in the data set with HepG2 cells, the “HepG2 cell viability in words” value is “not significantly altered” and the CC50 (usually the concentration giving 50% cytotoxicity) was more than 3 µM. In data set [2], the CC50 at 72 h was more than 3 µM. Also, in the data set on Vero cells, the “Vero cell viability in words” value is listed as “not significantly altered” and the CC50 is more than 3 µM. This compound had a CC50 at 72 h in [3] of more than 3 µM. In the data set “in vitro”, the “Passive permeability (PAMPA) in words” value was “low permeability” and the Papp (as a rule, a coefficient for how fast a substance crosses the barrier) at 5 h, 10 µM amounted to 3 nm/s. In data set [4], the Metabolism rate class result is reported as “moderate (moderate metabolism rates (47 ≤ Clint ≥ 16))”; the CLint scaled (usually the capacity of the preparation to metabolise the compound, expressed as a volume cleared per time) worked out at 2.34 L/h/kg; the half-life (commonly the time needed for the level to fall by half in the phase considered) amounted to 19 min.
Take `Cc1cc(NCc2ccc(OCc3ccc(F)cc3)cc2)c2cc(Br)ccc2n1` [Compound 9o, N-(4-((4-fluorobenzyl)oxy)benzyl) 6-bromo-2-methylquinolin-4-amine]: the melting point lay in the range of 173 to 175 °C. In the data set on M. tuberculosis H37Rv, the MIC is 2.8 µM. Further, in [1], the “Chemical Stability pH 1.2, remaining compound” value worked out at 22.9%; the “Chemical Stability pH 7.4, remaining compound” value stood at 7.6%; the “Chemical Stability pH 9.1, remaining compound” value is listed as 11.1%. In the data set with HepG2 cells, the “HepG2 cell viability in words” value is reported as “not significantly altered” and the CC50 is more than 3 µM. Besides, in data set [2], the CC50 at 72 h is more than 3 µM. Moreover, in the data set on Vero cells, the “Vero cell viability in words” value was “not significantly altered” and the CC50 is more than 3 µM. Also, the CC50 at 72 h in data set [3] was more than 3 µM. Moreover, in “in vitro”, the “Passive permeability (PAMPA) in words” value is on record as “high permeability” and the Papp at 5 h, 10 µM came out at 30 nm/s. Further, in [4], the Metabolism rate class entry is listed as “high (high metabolism rates (Clint > 47))”, the CLint scaled amounted to 3.36 L/h/kg and the half-life turned out to be 7.9 min.
